Consider 8 compounds from ChEMBL document CHEMBL1201862, “PubChem BioAssay data set” (2004).

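48-hour exposure; five concentrations; linearly interpolated endpoints. The concentration for 50% growth inhibition is given as GI50.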 Active and inactive are the calls of the source. Rule as the data show it: active = GI50 up to about 1.1 µM and inactive = higher.

Among the test systems are UACC-62; M14; SW-620; OVCAR-8; CAKI-1; HCT-15; SK-MEL-2; U-251; CCRF-CEM; TK-10; MDA-MB-231; MDA-MB-435; UO-31; SN12C; MOLT-4; A549; NCI-H460; SNB-75; SF-295; UACC-257.
What all share (experiment): NCI-60 cell line screen, 48 h

As to `N=C(N)N/N=C/c1c(-c2ccc([N+](=O)[O-])cc2)nc2sc(Cl)cn12`, the GI50 in the assay with UACC-62 is 1.6 µM (inactive); in the assay on M14, 1.37 µM (inactive); with SW-620, 0.226 µM (active); in the assay on OVCAR-8, 0.479 µM (active); in the assay with CAKI-1, 1.67 µM (inactive); in the assay with HCT-15, 0.312 µM. Also, the GI50 with SK-MEL-2 is 0.513 µM (active); in the assay with U-251 it was 0.418 µM (active); with CCRF-CEM, 0.277 µM (active); in the assay with TK-10 it was 2.05 µM (inactive); with MDA-MB-231, 0.262 µM (active); in the assay on MDA-MB-435, 0.902 µM (active). The GI50 with UO-31 is 0.979 µM (active); in the assay on SN12C, 1.31 µM (inactive); in the assay with MOLT-4, 0.247 µM (active); with A549, 0.593 µM (active); in the assay with NCI-H460, 1.73 µM (inactive); in the assay on SNB-75, 0.593 µM (active). In the assay on SF-295, the GI50 was 1.17 µM (inactive).
As to `O=c1oc2ccccc2c(Nc2ccc3c(c2)S(=O)(=O)c2ccccc2O3)c1[N+](=O)[O-]`, the GI50 with UACC-62 is 14.5 µM (inactive); in the assay with M14, 26.2 µM (inactive); in the assay with SW-620, 32.8 µM (inactive); in the assay with OVCAR-8, 25.2 µM (inactive); in the assay with CAKI-1, 17.8 µM (inactive); in the assay with HCT-15 it was 25.8 µM. For the same compound, the GI50 with SK-MEL-2 is 19.3 µM (inactive); in the assay on U-251, 19.7 µM (inactive); in the assay with CCRF-CEM it was 23.6 µM (inactive); in the assay with TK-10 it was 22.4 µM (inactive); in the assay with MDA-MB-231 it was 24.5 µM (inactive); in the assay with MDA-MB-435 it was 23.4 µM (inactive). The GI50 in the assay on UO-31 was 33.4 µM (inactive); with UACC-257, 19.5 µM (inactive); with SN12C it was 25.6 µM (inactive); in the assay on A549 it was 28.1 µM (inactive); in the assay with NCI-H460, 25.5 µM (inactive); in the assay on SNB-75 it was 22 µM (inactive). Further, the GI50 in the assay with SF-295 was 24.8 µM (inactive).
In the case of `O=C(CN1CCOCC1)c1ccc2c(c1)oc(=O)n2CCN1CCCC1`, the GI50 is > 100 µM (inactive) in the assay on UACC-62; > 100 µM (inactive) in the assay on M14; > 100 µM (inactive) in the assay with SW-620; > 100 µM (inactive) with OVCAR-8; > 100 µM (inactive) in the assay on CAKI-1; over 100 µM with HCT-15. Further, the GI50 with SK-MEL-2, in the assay on U-251, with CCRF-CEM, in the assay with TK-10, in the assay with MDA-MB-231 and in the assay on MDA-MB-435 was > 100 µM (inactive) throughout. The GI50 with UACC-257, with SN12C, in the assay on MOLT-4, in the assay on NCI-H460, with SNB-75 and in the assay on SF-295 was > 100 µM (inactive) in each case.
`O=P(O)(O)OP(=O)(O)O`: the GI50 with UACC-62 is > 100 µM (inactive); in the assay on M14, > 100 µM (inactive); in the assay with SW-620, > 100 µM (inactive); in the assay with OVCAR-8, > 100 µM (inactive); in the assay with CAKI-1, > 100 µM (inactive); in the assay on HCT-15, over 100 µM. Further, the GI50 with SK-MEL-2, with U-251, in the assay with CCRF-CEM, in the assay with TK-10, with MDA-MB-231 and in the assay with MDA-MB-435 was > 100 µM (inactive) throughout. For the same compound, the GI50 in the assay with UO-31, in the assay with UACC-257, with SN12C, in the assay on MOLT-4, in the assay on A549 and in the assay on NCI-H460 was > 100 µM (inactive) throughout. Further, in the assay with SNB-75, the GI50 was > 100 µM (inactive).
As to `COc1ccc(C2SC(=N)Nc3c2c(C)nn3C(=O)c2ccc(Cl)cc2)cc1` (stereo not given), the GI50 is > 10 µM (inactive) in the assay with UACC-62; > 10 µM (inactive) with M14; > 10 µM (inactive) in the assay on SW-620; > 10 µM (inactive) in the assay on OVCAR-8; > 10 µM (inactive) in the assay with CAKI-1; over 10 µM in the assay with HCT-15. The GI50 in the assay on SK-MEL-2, in the assay on U-251, with CCRF-CEM, with TK-10, in the assay on MDA-MB-231 and with MDA-MB-435 was > 10 µM (inactive) in each case. Moreover, the GI50 with UACC-257, in the assay on SN12C, with MOLT-4, in the assay with A549, in the assay on NCI-H460 and with SNB-75 was > 10 µM (inactive) each time. The GI50 with SF-295 was > 10 µM (inactive).
With `O=CC1C(Cl)=Nc2nc3ccccc3n2C1c1ccccc1` (stereo not given), the GI50 was 24.7 µM (inactive) in the assay with UACC-62; 23.7 µM (inactive) in the assay with M14; 19.4 µM (inactive) with SW-620; 21.4 µM (inactive) in the assay with OVCAR-8; 21.4 µM (inactive) with CAKI-1; 16.2 µM in the assay with HCT-15. The GI50 in the assay with SK-MEL-2 was 12 µM (inactive); with U-251 it was 18.2 µM (inactive); in the assay on CCRF-CEM it was 12.4 µM (inactive); with TK-10, 26.3 µM (inactive); with MDA-MB-231 it was 17.1 µM (inactive); with MDA-MB-435 it was 38.5 µM (inactive). Further, the GI50 with UO-31 is 14.7 µM (inactive); in the assay with UACC-257, 22.6 µM (inactive); in the assay with SN12C it was 20.7 µM (inactive); in the assay with A549, 23.8 µM (inactive); in the assay with NCI-H460, 55.2 µM (inactive); in the assay with SNB-75, 17 µM (inactive). Also, the GI50 in the assay with SF-295 is > 100 µM (inactive).
On to `CCOC(=O)c1nc2ccc(C(F)(F)F)cc2nc1NCc1ccc(OC)cc1`, for which the GI50 with UACC-62 is > 100 µM (inactive); with M14, > 100 µM (inactive); in the assay with SW-620, > 100 µM (inactive); in the assay on OVCAR-8 it was > 100 µM (inactive); in the assay on CAKI-1, > 100 µM (inactive); with HCT-15 it was 82.8 µM. In addition, the GI50 in the assay on SK-MEL-2 was 97.9 µM (inactive); in the assay on U-251 it was > 100 µM (inactive); in the assay on CCRF-CEM, > 100 µM (inactive); with TK-10, 71.6 µM (inactive); in the assay on MDA-MB-231, > 100 µM (inactive); with MDA-MB-435, > 100 µM (inactive). Further, the GI50 is > 100 µM (inactive) in the assay with UO-31; 74 µM (inactive) in the assay with UACC-257; 31.3 µM (inactive) in the assay with MOLT-4; 49.4 µM (inactive) with A549; 28 µM (inactive) with NCI-H460; 85.9 µM (inactive) with SNB-75. In the assay on SF-295, the GI50 was > 100 µM (inactive).
For `N#CC(=N)c1ncn(CCO)c1NC(=O)C(F)(F)F`, the GI50 in the assay with UACC-62 is > 100 µM (inactive); in the assay with M14, > 100 µM (inactive); in the assay on SW-620 it was > 100 µM (inactive); in the assay with OVCAR-8, > 100 µM (inactive); with CAKI-1, > 100 µM (inactive); in the assay with HCT-15 it was over 100 µM. Moreover, the GI50 in the assay on SK-MEL-2, in the assay with U-251, in the assay on CCRF-CEM, in the assay with TK-10, in the assay with MDA-MB-231 and in the assay on MDA-MB-435 was > 100 µM (inactive) each time. The GI50 in the assay on UACC-257, in the assay with SN12C, with A549, in the assay on NCI-H460, with SNB-75 and in the assay on SF-295 was > 100 µM (inactive) throughout.
